From US20020147196A1, “Composition and method for treating neuropathic pain” (priority 2001, published 2002) come the findings set out here.

Common to all, as to assay type: in vivo, rat
Series [1] can be described thus: observation of adverse side effects during chronic dosing in the CCI experiments. The method, then:
Lamotrigine (30 mgkg^−1 b.i.d. p.o.) was dosed chronically for a period of 12 days. The dose chosen was determined from previous “in-house” data and doses believed to be efficacious in the clinical treatment of neuropathic pain.
Bupropion (10 mgkg^−1 b.i.d. p.o.) was dosed chronically for a period of 8 days. The dose chosen reflects both previous “in-house” data and that which is believed to be efficacious in the clinical treatment of neuropathic pain.

The test system of series [2] is CCI-induced tactile allodynia. As to the kind of experiment: CCI model of neuropathic pain: mechanical (tactile) allodynia assessed with Von Frey hair monofilaments. As to the method: (§1) All experiments were performed using the chronic constriction injury (CCI) model of neuropathic pain in the rat. Under isoflurane anaesthesia, the common left sciatic nerve of male random hooded rats (180-220 g) was exposed at mid thigh level. Four ligatures of chromic gut (4.0) were tied loosely around the nerve with a 1 mm spacing between each. The wound was then closed and secured with suture clips. The surgical procedure was identical for the sham operated animals except the sciatic nerve was not ligated. The animals were allowed a period of 10 days to recover from the surgery before any behavioural testing began. The effect of the test compound on CCI-induced decrease in mechanical paw withdrawal threshold was measured using an algesymeter (Randall & Selitto, 1957). The presence of mechanical allodynia was assessed using Von Frey hair mono filaments (range: 4.19-84.96 g). The rats were lightly restrained and placed upon a metal grid floor, from below which the monofilaments were applied to the plantar surface of the hindpaws. The lowest monofilament to produce a withdrawal was the response recorded.
(§2) All data were expressed as mean±s.e.mean. Statistical analysis was carried out to compare the difference between the drug treated group and vehicle treated groups using unpaired Student's t-test (P<0.05 considered significant).

The test system of series [3] is CCI-induced decrease in mechanical paw withdrawal threshold. Kind of series: chronic constriction injury (CCI) model of neuropathic pain: mechanical paw withdrawal threshold measured with an algesymeter. To be noted: for known minimum effective dose in the CCI model: b.i.d. p.o., shown previously to have efficacy in the CCI model. As to the method:
as §1, §2

The mark [4] stands for this setting: bupropion 10 mgkg^−1 b.i.d. p.o., days 47-54.

SMILES strings stand for the structures.

As to `CC(NC(C)(C)C)C(=O)c1cccc(Cl)c1` (stereo not shown) [bupropion], the “adverse side effects as a result of the surgery or chronic dosing schedule” value in series [1] (bupropion 10 mgkg^−1 b.i.d. p.o. for 8 days) was “No adverse side effects were observed”. Also, the “reversal of tactile allodynia following cessation of treatment” value in series [2] (bupropion 10 mgkg^−1 b.i.d. p.o., after cessation) was “not maintained”. Besides, in series [2] (setting [4]), the “effect on tactile allodynia (Von Frey hair withdrawal threshold) during chronic dosing” value was “some effect”. The “day of maximal reversal of tactile allodynia” value in series [2] (bupropion 10 mgkg^−1 b.i.d. p.o., days 47-54, last day of dosing) was found to be 54 days. The “known minimum effective dose in the CCI model” value in series [3] is recorded as 10 mgkg^−1. In addition, in series [3] (bupropion 10 mgkg^−1, first day of dosing only, 1 hour post dose, sham-operated rats), the “effect on paw withdrawal thresholds in sham-operated rats” value is “small effect”. In series [3] (bupropion 10 mgkg^−1, single dose), the “reversal of the fall in paw withdrawal threshold back towards sham-operated levels after a single dose” value was “immediate reversal”. Moreover, in series [3] (setting [4]), the “reversal of paw withdrawal threshold during the chronic dosing period” value is “maintained throughout the chronic dosing period” and the “time the reversal of paw withdrawal threshold was maintained following cessation of treatment” value is 4 days.
`Nc1nnc(-c2cccc(Cl)c2Cl)c(N)n1` [lamotrigine]: the “adverse side effects as a result of the surgery or chronic dosing schedule” value in series [1] (lamotrigine 30 mgkg^−1 b.i.d. p.o. for 12 days) is “No adverse side effects were observed”. The “effect on CCI-induced tactile allodynia (Von Frey hair withdrawal threshold) during chronic dosing” value in series [2] (lamotrigine 30 mgkg^−1 b.i.d. p.o.) was “transient reversal”. Besides, the “effect on tactile allodynia following cessation of treatment, compared to vehicle treated group” value in series [2] (lamotrigine 30 mgkg^−1 b.i.d. p.o., after cessation) is given as “small reversal”. The “known minimum effective dose in the CCI model” value in series [3] is given as 10 mgkg^−1. For the same compound, the “reversal of the CCI-induced decrease in paw-withdrawal threshold to that of sham-operated animals” value in series [3] (lamotrigine 30 mgkg^−1 twice daily p.o., days 13-24 post-operative) is reported as “fully reversed”. In series [3] (lamotrigine 30 mgkg^−1 twice daily p.o., dosing ended day 24), the “post-operative day until which the analgesic effect was maintained following cessation of treatment” value was 37 day post-operative. In addition, in series [3] (lamotrigine 30 mgkg^−1 twice daily p.o., dosing from day 13 post-operative), the “post-operative day by which the decrease in paw-withdrawal threshold was fully reversed” value is no more than 16 days.
